# “And” between values parts separate entries of the source, which are not always exact repeats. Identical values can stand only once. “Also recorded” adds a separate entry of the source. Like-named read-outs stand apart in the source and are kept apart here.
# Key:
# aureolysin (ALN) = biological target: T1, aureolysin (ALN) (Staphylococcus aureus, UniProt P81177); assay: Enzyme inhibition kinetics, fluorogenic substrate ES005; assay type: biochemical; settings: for remaining activity at 100 µM: 100 µM inhibitor
# T1 construct: purchased BioCentrum Ltd (Kraków, Poland)
# thermolysin (TLN) = biological target: T2, thermolysin (TLN) (Bacillus thermoproteolyticus, UniProt P00800); assay: as above; assay type: biochemical; settings: for vi/v0 avg (time dependent inhibition, Supplementary Figure S8): Thermolysin, inhibitor 100 µM
# T2 construct: purchased Calbiochem (San Diego, CA, USA)
# Method in brief: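 Initial rates were read at 37 °C (ex 320/em 405 nm) with 4.0 µM substrate, ES001 for MMP-14 (1.0 nM) and ES005 for PLN (0.5 nM), TLN (0.21 nM), ALN (1.4 nM), in pH 7.5 Hepes, 10 mM CaCl2, 0.005% Brij-35, 1.0% DMSO. Enzymes were preincubated 30 min at room temperature or not; IC50 fitted, Ki from IC50 using Km.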
# pseudolysin (PLN, LasB) = biological target: T3, pseudolysin (PLN, LasB) (Pseudomonas aeruginosa, UniProt P14756); assay: as above; assay type: biochemical; settings: for remaining activity at 100 µM: 100 µM inhibitor
# T3 construct: purchased Calbiochem (San Diego, CA, USA)
# MMP-14 = settings: previously reported; cited from earlier work
# MMP-9 = settings: previously reported; cited from earlier work
# [1] = biological target: T4, Mag-Trypsin activated MMP-9 (MMP-9(MT)) (Homo sapiens, UniProt P14780); assay: Enzyme inhibition kinetics, fluorogenic substrate ES001; assay type: biochemical; settings: for remaining activity at 100 µM: 100 µM inhibitor; for Vi/V0 avg: Trypsin activated MMP-9, average
# T4 construct: made in house; host or cells: Sf9 and High Five insect cells
# T4 sequence (P14780 107-707 limits assumed): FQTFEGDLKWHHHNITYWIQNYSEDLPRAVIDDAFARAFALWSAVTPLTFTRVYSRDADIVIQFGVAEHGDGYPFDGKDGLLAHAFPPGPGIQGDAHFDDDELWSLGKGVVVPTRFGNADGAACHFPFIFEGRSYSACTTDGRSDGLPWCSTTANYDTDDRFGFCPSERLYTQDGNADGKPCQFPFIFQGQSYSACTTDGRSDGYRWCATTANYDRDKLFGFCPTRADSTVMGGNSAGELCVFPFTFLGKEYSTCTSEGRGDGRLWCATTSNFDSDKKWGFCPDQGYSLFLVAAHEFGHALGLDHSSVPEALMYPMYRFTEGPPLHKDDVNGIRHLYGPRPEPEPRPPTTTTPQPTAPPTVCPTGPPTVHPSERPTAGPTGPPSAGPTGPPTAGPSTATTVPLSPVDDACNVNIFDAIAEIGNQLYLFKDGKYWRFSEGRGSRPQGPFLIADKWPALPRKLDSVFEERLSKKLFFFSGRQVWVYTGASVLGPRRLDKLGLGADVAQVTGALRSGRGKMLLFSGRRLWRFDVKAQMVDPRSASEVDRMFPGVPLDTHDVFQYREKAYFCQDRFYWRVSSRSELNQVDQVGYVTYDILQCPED
# T2 sequence (P00800 233-548): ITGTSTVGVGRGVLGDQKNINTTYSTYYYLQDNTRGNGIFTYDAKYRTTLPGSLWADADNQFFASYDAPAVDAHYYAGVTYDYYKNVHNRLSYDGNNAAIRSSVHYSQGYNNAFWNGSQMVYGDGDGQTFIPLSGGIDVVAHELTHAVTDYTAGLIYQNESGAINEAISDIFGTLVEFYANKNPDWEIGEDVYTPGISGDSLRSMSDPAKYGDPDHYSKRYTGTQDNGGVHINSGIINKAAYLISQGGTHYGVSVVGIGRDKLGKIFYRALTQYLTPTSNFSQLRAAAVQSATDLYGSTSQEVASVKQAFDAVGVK
# T3 sequence (P14756 198-498): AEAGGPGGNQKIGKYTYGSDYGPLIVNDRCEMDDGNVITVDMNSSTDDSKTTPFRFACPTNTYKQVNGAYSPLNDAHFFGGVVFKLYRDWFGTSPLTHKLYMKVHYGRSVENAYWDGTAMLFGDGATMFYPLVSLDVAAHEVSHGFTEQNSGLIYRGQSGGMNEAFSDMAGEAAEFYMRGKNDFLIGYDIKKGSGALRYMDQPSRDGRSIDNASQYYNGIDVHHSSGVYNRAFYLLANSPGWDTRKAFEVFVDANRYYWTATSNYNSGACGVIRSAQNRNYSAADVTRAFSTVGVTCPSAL
# T1 sequence (P81177 209-509): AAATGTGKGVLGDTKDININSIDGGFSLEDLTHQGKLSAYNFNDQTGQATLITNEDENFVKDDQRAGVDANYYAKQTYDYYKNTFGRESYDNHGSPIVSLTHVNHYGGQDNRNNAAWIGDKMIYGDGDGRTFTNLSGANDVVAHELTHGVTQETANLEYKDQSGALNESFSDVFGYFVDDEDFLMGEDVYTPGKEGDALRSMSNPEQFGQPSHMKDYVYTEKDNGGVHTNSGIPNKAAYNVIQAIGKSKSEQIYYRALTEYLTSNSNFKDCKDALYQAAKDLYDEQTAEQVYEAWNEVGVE
compound,measurement,setting,value
NC(=O)C(CCC(=O)O)NC(=O)C(CCC(=O)O)NC(=O)C(Cc1cc(-c2ccc(-c3cccc(Cl)c3)cc2)no1)CP(=O)(O)c1ccc(Br)cc1 (stereo not drawn) [H-1],remaining activity at 100 µM,"aureolysin (ALN); 0.25 h, read-out: vi/v0 (single replicate), Aureolysin, 15 min pre incubation",81.9%
same,remaining activity at 100 µM,"aureolysin (ALN); 0.25 h, read-out: vi/v0 avg, Aureolysin, 15 min pre incubation",88.7%
same,remaining activity at 100 µM,"aureolysin (ALN); 0.5 h, read-out: vi/v0 (single replicate), Aureolysin, 30 min pre incubation",89.6%
same,remaining activity at 100 µM,"aureolysin (ALN); 0.5 h, read-out: vi/v0 avg, Aureolysin, 30 min pre incubation",89.8%
same,inhibitory effect on enzymatic activity,"aureolysin (ALN); ALN, 100 μM compound, in words, 100 µM",did not inhibit; also recorded: no inhibition
same,vi/v0 Av (bar diagram figure 7),"aureolysin (ALN); Aureolysin (ALN), inhibitor 100 μM, average over 0, 15, 30 min preincubation",0.886
same,"vi/v0 (relative enzyme activity with inhibitor), single determinations","aureolysin (ALN); Aureolysin (ALN), inhibitor 100 μM, preincubation 0 min",0.8363 and 0.9057 and 0.9048 and 0.862
same,"vi/v0 (relative enzyme activity with inhibitor), single determinations","aureolysin (ALN); Aureolysin (ALN), inhibitor 100 μM, preincubation 15 min",0.8192 and 0.9295 and 0.9112
same,"vi/v0 (relative enzyme activity with inhibitor), single determinations","aureolysin (ALN); Aureolysin (ALN), inhibitor 100 μM, preincubation 30 min",0.8961 and 0.9218 and 0.8734
same,remaining activity at 100 µM,"aureolysin (ALN); read-out: vi/v0 (single replicate), Aureolysin, no preincubation",83.6%
same,remaining activity at 100 µM,"aureolysin (ALN); read-out: vi/v0 avg, Aureolysin, no preincubation",87.7%
same,inhibitory effect on enzymatic activity,"thermolysin (TLN); TLN, 100 μM compound, in words, 100 µM",did not inhibit; also recorded: no inhibition
same,vi/v0 Av (bar diagram figure 7),"thermolysin (TLN); Thermolysin (TLN), inhibitor 100 μM, average over 0, 15, 30 min preincubation",1.079
same,"vi/v0 (relative enzyme activity with inhibitor), single determinations","thermolysin (TLN); Thermolysin (TLN), inhibitor 100 μM, preincubation 0 min",1.072 and 1.233 and 0.6933 and 1.269
same,"vi/v0 (relative enzyme activity with inhibitor), single determinations","thermolysin (TLN); Thermolysin (TLN), inhibitor 100 μM, preincubation 15 min",1.072 and 0.7991 and 1.161 and 1.236
same,"vi/v0 (relative enzyme activity with inhibitor), single determinations","thermolysin (TLN); Thermolysin (TLN), inhibitor 100 μM, preincubation 30 min",1.057 and 0.7107 and 1.167 and 1.093
same,"vi/v0 avg (time dependent inhibition, Supplementary Figure S8)",thermolysin (TLN); 15 min pre incubation,1.067
same,"vi/v0 avg (time dependent inhibition, Supplementary Figure S8)",thermolysin (TLN); 30 min pre incubation,1.007
same,"vi/v0 avg (time dependent inhibition, Supplementary Figure S8)",thermolysin (TLN); No preincubation,1.0666
same,remaining activity at 100 µM,"pseudolysin (PLN, LasB); 0.25 h, read-out: vi/v0 (single replicate), Pseudolysin, 15 min pre incubation",97.4%
same,remaining activity at 100 µM,"pseudolysin (PLN, LasB); 0.25 h, read-out: vi/v0 avg, Pseudolysin, 15 min pre incubation",100%
same,remaining activity at 100 µM,"pseudolysin (PLN, LasB); 0.5 h, read-out: vi/v0 (single replicate), Pseudolysin, 30 min pre incubation",99%
same,remaining activity at 100 µM,"pseudolysin (PLN, LasB); 0.5 h, read-out: vi/v0 avg, Pseudolysin, 30 min pre incubation",96.9%
same,inhibitory effect on enzymatic activity,"pseudolysin (PLN, LasB); PLN, 100 μM compound, in words, 100 µM",did not inhibit; also recorded: no inhibition
same,vi/v0 Av (bar diagram figure 7),"pseudolysin (PLN, LasB); Pseudolysin (PLN), inhibitor 100 μM, average over 0, 15, 30 min preincubation",0.993
same,"vi/v0 (relative enzyme activity with inhibitor), single determinations","pseudolysin (PLN, LasB); Pseudolysin (PLN), inhibitor 100 μM, preincubation 0 min",0.9731 and 1.039 and 1.005 and 1.023
same,"vi/v0 (relative enzyme activity with inhibitor), single determinations","pseudolysin (PLN, LasB); Pseudolysin (PLN), inhibitor 100 μM, preincubation 15 min",0.9736 and 1.014 and 0.9905 and 1.0217
same,"vi/v0 (relative enzyme activity with inhibitor), single determinations","pseudolysin (PLN, LasB); Pseudolysin (PLN), inhibitor 100 μM, preincubation 30 min",0.9904 and 0.9857 and 0.9514 and 0.949
same,remaining activity at 100 µM,"pseudolysin (PLN, LasB); read-out: vi/v0 (single replicate), Pseudolysin, no preincubation",97.3%
same,remaining activity at 100 µM,"pseudolysin (PLN, LasB); read-out: vi/v0 avg, Pseudolysin, no preincubation",101%
same,Ki,MMP-14,140 nM
same,Ki,MMP-9,1300 nM
same,Ki,[1],30000 ± 4000 nM
same,remaining activity at 100 µM,"[1]; 0.25 h, read-out: vi/v0 (single replicate), rMMP-9 (Mag-trypsin activated), 15 min pre incubation",38.1%
same,remaining activity at 100 µM,"[1]; 0.25 h, read-out: vi/v0 avg, rMMP-9 (Mag-trypsin activated), 15 min pre incubation",47.9%
same,remaining activity at 100 µM,"[1]; 0.5 h, read-out: vi/v0 (single replicate), rMMP-9 (Mag-trypsin activated), 30 min pre incubation",47.4%
same,remaining activity at 100 µM,"[1]; 0.5 h, read-out: vi/v0 avg, rMMP-9 (Mag-trypsin activated), 30 min pre incubation",47.5%
same,inhibitory effect on enzymatic activity,"[1]; MMP-9(MT), 100 μM compound, in words",strong inhibition
same,Vi/V0 avg,[1]; [H1] 10 μM,0.823
same,Vi/V0 avg,[1]; [H1] 20 μM,0.766
same,Vi/V0 avg,[1]; [H1] 30 μM,0.6506
same,Vi/V0 avg,[1]; [H1] 40 μM,0.6729
same,Vi/V0 avg,[1]; [H1] 50 μM,0.6218
same,Vi/V0 avg,[1]; [H1] 60 μM,0.5683
same,Vi/V0 avg,[1]; [H1] 70 μM,0.5353
same,Vi/V0 avg,[1]; [H1] 80 μM,0.5363
same,Vi/V0 avg,[1]; [H1] 90 μM,0.4452
same,Vi/V0 avg,[1]; [H1] 100 μM,0.4212
same,vi/v0 Av (bar diagram figure 7),"[1]; rMMP-9 (Mag-trypsin activated), inhibitor 100 μM, average over 0, 15, 30 min preincubation",0.4755
same,"vi/v0 (relative enzyme activity with inhibitor), single determinations","[1]; rMMP-9 (Mag-trypsin activated), inhibitor 100 μM, preincubation 0 min",0.4571 and 0.4536 and 0.4887 and 0.489
same,"vi/v0 (relative enzyme activity with inhibitor), single determinations","[1]; rMMP-9 (Mag-trypsin activated), inhibitor 100 μM, preincubation 15 min",0.3806 and 0.5206 and 0.4881 and 0.528
same,"vi/v0 (relative enzyme activity with inhibitor), single determinations","[1]; rMMP-9 (Mag-trypsin activated), inhibitor 100 μM, preincubation 30 min",0.4739 and 0.4997 and 0.4971 and 0.4295
same,remaining activity at 10 µM,"[1]; read-out: Vi/V0, Trypsin activated MMP-9, [H1] 10 μM, replicate vi over each of 4 controls",76.1%
same,remaining activity at 40 µM,"[1]; read-out: Vi/V0, Trypsin activated MMP-9, [H1] 40 μM, replicate vi over each of 4 controls",63.2%

# From PMC12316308, “Interactions of substrates and phosphinyl containing inhibitors with bacterial and human zinc proteases” (PLOS One, 2025)
